Assays:
Assay type in all cases: binding
Cc(6–4)PL [1] = target: T1, Cc(6–4)PL (Caulobacter vibrioides, UniProt Q9AAF5); test: XFEL serial femtosecond crystallography and synchrotron crystal structures; conditions: dark-adapted oxidized state, room temperature; catalytic FAD site; co-purified cofactor
T1 construct: gene CC_0646; pET28-based, nickel-NTA purified (His-tagged by implication) from E. coli BL21(DE3); model spans M1-S508; contains FAD, DLZ and [4Fe-4S] cluster
T1 sequence (Q9AAF5 1-509): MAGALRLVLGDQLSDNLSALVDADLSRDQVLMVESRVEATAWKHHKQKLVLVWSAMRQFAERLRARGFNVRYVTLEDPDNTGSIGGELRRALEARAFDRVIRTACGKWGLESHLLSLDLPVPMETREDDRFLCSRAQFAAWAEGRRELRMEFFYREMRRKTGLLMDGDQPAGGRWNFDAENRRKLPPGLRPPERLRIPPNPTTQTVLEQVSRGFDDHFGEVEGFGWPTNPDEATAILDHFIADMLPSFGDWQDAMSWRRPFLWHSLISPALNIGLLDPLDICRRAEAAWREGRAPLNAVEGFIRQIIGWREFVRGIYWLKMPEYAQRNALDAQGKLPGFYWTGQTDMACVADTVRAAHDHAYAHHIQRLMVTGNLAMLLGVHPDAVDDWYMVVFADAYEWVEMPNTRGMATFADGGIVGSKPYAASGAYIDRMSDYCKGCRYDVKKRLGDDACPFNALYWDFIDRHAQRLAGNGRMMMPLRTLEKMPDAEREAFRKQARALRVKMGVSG

Cc(6–4)PL [2] = target: T1, Cc(6–4)PL; test: XFEL serial femtosecond crystallography; in crystallo UV-vis; conditions: photoreduced in crystals, 50 mM DTT, anaerobic, 30 min white light and blue LED; catalytic FAD site
Cc(6–4)PL [3] = target: T1, Cc(6–4)PL; test: XFEL serial femtosecond crystallography; conditions: dark-adapted oxidized state, room temperature; N-terminal antenna site; co-purified cofactor
Cc(6–4)PL [4] = target: T2, Cc(6–4)PL (Caulobacter vibrioides, UniProt Q9AAF5, K48A); test: X-ray crystal structure (synchrotron, […] Å); UV/vis spectroscopy; conditions: antenna site; occupancy in crystal, not an affinity
T2 construct: gene CC_0646; pET28-based, nickel-NTA purified (His-tagged by implication) from E. coli BL21(DE3); model spans M1-S508; contains FAD, DLZ and [4Fe-4S] cluster
T2 sequence (Q9AAF5 entry or part of it K48A): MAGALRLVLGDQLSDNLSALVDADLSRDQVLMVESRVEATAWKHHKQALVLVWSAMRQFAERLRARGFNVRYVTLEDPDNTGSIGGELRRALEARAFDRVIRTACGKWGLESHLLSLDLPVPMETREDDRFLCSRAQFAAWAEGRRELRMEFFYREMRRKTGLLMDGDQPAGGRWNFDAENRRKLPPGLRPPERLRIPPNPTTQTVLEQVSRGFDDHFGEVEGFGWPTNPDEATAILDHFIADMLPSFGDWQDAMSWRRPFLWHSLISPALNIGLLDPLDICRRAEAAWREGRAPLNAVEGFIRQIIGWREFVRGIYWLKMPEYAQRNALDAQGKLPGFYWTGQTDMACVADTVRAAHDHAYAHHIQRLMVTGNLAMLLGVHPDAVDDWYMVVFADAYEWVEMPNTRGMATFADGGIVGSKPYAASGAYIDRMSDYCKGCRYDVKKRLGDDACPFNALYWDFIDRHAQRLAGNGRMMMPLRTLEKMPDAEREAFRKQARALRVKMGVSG

In the case of `Cc1cc2nc3c(=O)[nH]c(=O)nc-3n(C[C@H](O)[C@H](O)[C@H](O)COP(=O)(O)OP(=O)(O)OC[C@H]3O[C@@H](n4cnc5c(N)ncnc54)[C@H](O)[C@@H]3O)c2cc1C` [FADox], the “XFEL serial femtosecond crystallography and synchrotron crystal structures” value (Cc(6–4)PL [1]) is reported as “the damage-free structures reveal FAD’s binding arrangement with its isoalloxazine moiety engaging key amino acid residues”.

In the case of `Cc1cc2c(cc1C)N(C[C@H](O)[C@H](O)[C@H](O)COP(=O)(O)OP(=O)(O)OC[C@H]1O[C@@H](n3cnc4c(N)ncnc43)[C@H](O)[C@@H]1O)c1[nH]c(=O)[nH]c(=O)c1N2` [FADH–], the “XFEL serial femtosecond crystallography; in crystallo UV-vis” value (Cc(6–4)PL [2]) is reported as “structural changes occurred in the FAD binding site compared to the FADox state”.

`Cc1nc2c(=O)[nH]c(=O)nc-2n(C[C@H](O)[C@H](O)[C@H](O)CO)c1C` [DLZ] was tested, and the “XFEL serial femtosecond crystallography” value (Cc(6–4)PL [3]) was “Structural analysis reveals an intricate DLZ binding pocket with interactions involving several key residues” and the occupancy (Cc(6–4)PL [4]) was ~ 50%.

Source: PMC12082625, “Redox-State-Dependent Structural Changes within a Prokaryotic 6–4 Photolyase” (Journal of the American Chemical Society, 2025)
